Test results reported in patent US11952364B2, “TRK inhibitors useful as anticancer drugs” (TYLIGAND BIOSCIENCE (SHANGHAI) LIMITED, priority 2018, dated 2024).
pIC50: −log10 of the molar value. Where two headings read alike, the source gives them in different places.

System: Ba/F3 ETV6-NTRK3-G696C cells
Assay: Proliferation of Ba/F3 ETV6-NTRK3-G696C cells (CellTiter-Glo)
Assay type: cell-based, mouse
Conditions: Mus musculus
Description: Ba/F3 ETV6-NTRK3-G696C is a stable transgenic cell line constructed by KYinno Biotechnology Co., Ltd. on mouse primary B cell Ba/F3 wherein NTRK3 is highly expressed with a mutation of G at position […] to C and fused with ETV6 to form ETV6-NTRK3. • [Test method]: Promega's CellTiter-Glo® Luminescent Cell Viability Assay kit was used to evaluate the inhibitory activity of the compounds on the proliferation of Ba/F3 ETV6-NTRK3-G696C cells. • [Instrument]: Spectramax M3 multifunctional microplate reader from Molecular Devices. • [Test materials]: Ba/F3 ETV6-NTRK3-G696C cell line (constructed by KYinno Biotechnology Co., Ltd. (Beijing)), 96-well transparent flat-bottomed black-walled cell culture plate (Corning, cat #3603), RPMI-1640 media (GE, product number #SH30027.01), fetal bovine serum FBS (Thermo Fisher, cat #10099-141), CellTiter-Glo® Luminescent Cell Viability Assay kit (Promega, cat #G7572), PBS (Solarbio, cat #P1020), DMSO (Sigma, cat #D2650). • [Experimental procedure]: When resuscitating Ba/F3 ETV6-NTRK3-G696C cells, • the freezing tube was quickly shaken in a 37° C. water bath to melt within 1 minute. The thawed cell suspension was mixed uniformly with RPMI1640 medium containing 10% FBS, centrifuged at 1000 rpm for 5 minutes, and the supernatant discarded. 5 mL of complete medium (RPMI1640 medium with 10% FBS) was taken to resuspend the cell pellets, charged into a cell culture flask with a bottom area of 25 cm^2, and incubated in a cell incubator at 37° C., 95% humidity and 5% CO2. Cells were allowed to passage when the number of cells reached about 10^6 cells/mL. For cell passage, the old cell suspension was directly pipetted evenly, 1/5 of the cell suspension was kept, 4 mL of new complete medium was added, after pipetting evenly, the cell flask was placed in the cell incubator for further culturing. Cell plating was performed when the number of cells reached about 10^6 cells/mL again. For cell plating, 1/5 of the cell suspension was kept for further culturing as in the cell passage method, and the remaining 4/5 of the cell suspension was placed in a 15 mL centrifuge tube, detected for cell viability by Trypan blue exclusion method to ensure that cell viability was above 90%. A cell suspension with a density of 5.56×10^4 viable cells/mL was prepared with complete medium, and 90 μL of such cell suspension was added to a 96-well cell culture plate to obtain the cell density of 5000 viable cells/mL in the cell culture plate. A control group containing no cells, no compound and only complete medium (i.e. culture medium control) and a control group containing no compound but containing cells (i.e. cell control) were set. The cell plate was placed in a cell incubator overnight. The 10 mM compound stock solution in DMSO was first serially diluted with DMSO at a dilution factor of 3.16 times, to obtain 9 concentrations, and the 10th concentration was set as DMSO control without compound. Then, PBS was used to dilute the DMSO solutions of compounds of different concentrations, at a dilution factor of 100 times, so that the DMSO concentration in the compound solution of each concentration was 1%. Finally, 10 μL of each of the above solutions was added to the corresponding cell culture plate, so that the initial compound concentration was 10 μM, with the remaining concentrations being successively diluted at a dilution factor of 3.16 times, and the DMSO content in the cell culture plate was 0.1%. The cell plate was placed in a cell incubator and cultured for 72 hours. For endpoint detection, the CellTiter-Glo reagent was melted, and the cell plate was moved to room temperature to equilibrate for 30 minutes, added with 100 μL of CellTiter-Glo for each well, and shaken on an orbital shaker for 5 minutes to fully lyse the cells. […]

[1] = BaF3, 72 h, Table 7, 72 hours, read-out: Ba/F3 ETV6-NTRK3-G696C, IC50

| Structure (SMILES) | pIC50 (BaF3, Table 9, read-out: Ba/F3 ETV6-NTRK3-G696C cell proliferation inhibitory activity (IC50)) | pIC50 [1] | pIC50 (BaF3, Table 7-1, separate test, read-out: Ba/F3 ETV6-NTRK3-G696C, IC50) | pIC50 (BaF3, Table 7-2, separate test, read-out: Ba/F3 ETV6-NTRK3-G696C, IC50) |
| --- | --- | --- | --- | --- |
| CC(C)Oc1ccc(C(=O)Nc2ccc(Oc3cc4cnn5c4c(c3-c3cn[nH]c3)CC5)c(F)c2)c(=O)n1-c1ccc(F)cc1 [Example 34, N-(4-((5-(1H-pyrazol-4-yl)-6,7-dihydropyrrolo[3,2,1-hi]-indazol-4-yl)oxy)-3-fluorophenyl)-1-(4-fluorophenyl)-6-isopropoxy-2-oxo-12-dihydropyrndine-3-carboxamide] | 8.32 | – | – | – |
| O=C(Nc1cnn2ccc(N3CCC[C@@H]3c3cc(F)ccc3F)nc12)N1CC[C@H](O)C1 [LOXO-101, Larotrectinib, reference compound] | – | 5.72 | – | – |
| Cc1ccc(C(=O)Nc2ccc(Oc3cc4cnn(C)c4cc3-c3cn[nH]c3)c(F)c2)c(=O)n1-c1ccc(F)cc1 [Merestinib, reference compound] | – | 8.00 | 7.89 | 8.77 |
